Legend:
nitrification = assay: Field trial: covered reservoir dosed with copper sulphate; ammonia, nitrite and nitrate measured at inlet and outlet; conditions: copper about 0.25 mg/L for six weeks
Procedure: The levels of ammonia, nitrite and nitrate were measured both at reservoir inlet and outlet.

[1] = tested on: ammonia oxidising bacteria, cultured from a chloraminated system; assay: Ammonia level over days in a dechlorinated chloraminated water sample dosed with ammonia and ammonia oxidising bacteria; type: cell-based
Procedure: After the elimination of chlorine, a chloraminated water bulk sample was dosed with excess ammonia to achieve 1.50 mg/L ammonia-N concentration. The bulk sample was dosed with ammonia oxidising bacteria, cultured from a chloraminated system.
The bulk sample was then subsampled into 9 separate portions. These portions were dosed as follows: • 1. no dosage • 2. 0.1 mg/L copper • 3. 0.2 mg/L copper • 4. 0.3 mg/L copper • 5. 0.2 mg/L zinc • 6. 0.4 mg/L zinc • 7. 0.2 mg/L copper, 0.1 mg/L zinc • 8. 0.1 mg/L copper, 0.2 mg/L zinc • 9. 0.2 mg/L copper, 0.4 mg/L zinc.
The samples were measured over subsequent days to determine the ammonia levels.

[2] = 0.1 mg/L copper, 1.50 mg/L ammonia-N at start
[3] = 0.2 mg/L copper, 1.50 mg/L ammonia-N at start
[4] = 0.3 mg/L copper, 1.50 mg/L ammonia-N at start

[Cu] [copper]
microbiological activity following dosing (nitrification): significant reduction | nitrate and nitrite levels at reservoir outlet (nitrification; detention period 3.5 days): substantial reduction | percentage of ammonia surviving from inlet to outlet (nitrification; detention period 3.5 days): substantial increase | time after which the ammonia level begins to fall [1, 2]: about seven | time to fall to the base ammonia level of about 0.1 mg/L [1, 2]: ~12 days | time the ammonia level was maintained [1, 3]: about 15 days | time to reach the base ammonia level [1, 3]: 19 days | time the ammonia level was maintained [1, 4]: 34 days | time to reach the base ammonia level [1, 4]: 40 days

[Zn] [zinc]
effect of zinc on the efficacy of the copper dose ([1]; zinc 0.1-0.4 mg/L in conjunction with copper 0.1-0.2 mg/L): decrease the efficacy of the copper dose
